The NIST ThermoML archive (doi:10.1021/je100017w)

Conditions: Liquid

CC[Si](OC)(OC)OC [ethyltrimethoxysilane]
Conditions | vapor or sublimation pressure [kPa]
306.35 K | 2.325
311.45 K | 3.325
315.95 K | 4.325
319.8 K | 5.325
324.15 K | 6.325
328.65 K | 8.325
334.15 K | 10.32
338.95 K | 13.32
343.65 K | 16.32
347.65 K | 19.32
351.35 K | 22.32
354.55 K | 25.32
357.45 K | 28.32
360.15 K | 31.32
362.65 K | 34.33
364.95 K | 37.33
367.55 K | 40.33
369.65 K | 43.33
371.05 K | 46.33
374.05 K | 49.33
375.85 K | 52.33
376.45 K | 55.33
379.85 K | 58.33
381.15 K | 61.33
382.55 K | 64.33
383.15 K | 67.33
384.85 K | 70.33
385.85 K | 73.33
386.65 K | 76.33
387.55 K | 79.33
388.95 K | 82.33
389.95 K | 85.33
390.95 K | 88.33
392.95 K | 91.33
393.05 K | 94.33
393.75 K | 97.33
393.95 K | 100.33
397.15 K | 101.33
